Read-outs that look alike come from different tables or passages of the source.
Legend:
human NK-3 receptor [1] = molecular target: T1, human NK-3 receptor (Homo sapiens (Human), UniProt P29371); assay: Aequorin functional assay with human NK-3 receptor (antagonist testing vs NKA); type: cell-based; conditions: inhibition of NKA (3 nM, EC80) response, CHO cells expressing human NK3 receptor and apoaequorin
human NK-3 receptor [2] = molecular target: T1, human NK-3 receptor; assay: 3H-SB222200 binding competition assay with human NK-3 receptor
Procedure: ^3H-SB222200 Binding Competition Assay with Human NK-3 Receptor
The membranes were incubated with 5 nM ^3H-SB222200(ARC) in a HEPES 25 mM/NaCl 0.1M/CaCl2 1 mM/MgCl2 5 Mm/BSA 0.5%/Saponin 10 μg/ml buffer at pH 7.4 and various concentrations of compounds of the invention. The amount of ^3H-SB222200 bound to the receptor was determined after filtration by the quantification of membrane associated radioactivity using the TopCount-NXT reader (Packard).

human NK1 receptor = human NK1 receptor (Homo sapiens (Human), UniProt P25103); assay: Human NK1 [3H] substance P binding assay (selectivity)
human NK2 receptor = human NK2 receptor (Homo sapiens (Human), UniProt P21452); assay: Human NK2 [125I]-Neurokinin A binding assay (selectivity)
[3] = Table 6, membranes of CHO cells expressing human NK3 receptor, 5 nM 3H-SB222200, read-out: Ki
[4] = Table 7, human NK-3 receptor, read-out: NK3 Ki
[5] = read-out: NK1 Ki, for the racemate, value measured for the racemate of the numbered compound
[6] = read-out: NK2 Ki, for the racemate, value measured for the racemate of the numbered compound

human NK2 receptor, sequence (P21452 whole entry): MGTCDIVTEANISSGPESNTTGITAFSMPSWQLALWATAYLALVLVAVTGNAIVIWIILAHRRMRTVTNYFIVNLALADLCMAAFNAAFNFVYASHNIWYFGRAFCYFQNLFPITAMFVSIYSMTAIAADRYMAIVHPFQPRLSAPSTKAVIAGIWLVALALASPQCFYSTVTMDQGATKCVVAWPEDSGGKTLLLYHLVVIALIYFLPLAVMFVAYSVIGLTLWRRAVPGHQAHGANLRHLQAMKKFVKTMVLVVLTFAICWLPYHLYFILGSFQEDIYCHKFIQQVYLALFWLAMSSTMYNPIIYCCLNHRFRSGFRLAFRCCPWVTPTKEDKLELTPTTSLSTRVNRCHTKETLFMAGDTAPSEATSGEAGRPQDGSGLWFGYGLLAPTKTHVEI
human NK1 receptor, sequence (P25103 whole entry): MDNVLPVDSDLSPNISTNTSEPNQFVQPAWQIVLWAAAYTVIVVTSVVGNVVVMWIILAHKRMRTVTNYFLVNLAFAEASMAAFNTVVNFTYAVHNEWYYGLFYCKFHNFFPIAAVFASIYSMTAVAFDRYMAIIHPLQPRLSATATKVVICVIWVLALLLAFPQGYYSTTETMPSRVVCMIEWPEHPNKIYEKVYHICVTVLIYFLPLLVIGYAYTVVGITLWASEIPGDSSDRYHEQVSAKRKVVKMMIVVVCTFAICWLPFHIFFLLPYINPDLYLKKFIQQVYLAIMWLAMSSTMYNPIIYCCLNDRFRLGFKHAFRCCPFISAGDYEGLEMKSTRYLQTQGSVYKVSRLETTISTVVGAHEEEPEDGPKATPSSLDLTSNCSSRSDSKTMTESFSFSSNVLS
T1 sequence (P29371 whole entry): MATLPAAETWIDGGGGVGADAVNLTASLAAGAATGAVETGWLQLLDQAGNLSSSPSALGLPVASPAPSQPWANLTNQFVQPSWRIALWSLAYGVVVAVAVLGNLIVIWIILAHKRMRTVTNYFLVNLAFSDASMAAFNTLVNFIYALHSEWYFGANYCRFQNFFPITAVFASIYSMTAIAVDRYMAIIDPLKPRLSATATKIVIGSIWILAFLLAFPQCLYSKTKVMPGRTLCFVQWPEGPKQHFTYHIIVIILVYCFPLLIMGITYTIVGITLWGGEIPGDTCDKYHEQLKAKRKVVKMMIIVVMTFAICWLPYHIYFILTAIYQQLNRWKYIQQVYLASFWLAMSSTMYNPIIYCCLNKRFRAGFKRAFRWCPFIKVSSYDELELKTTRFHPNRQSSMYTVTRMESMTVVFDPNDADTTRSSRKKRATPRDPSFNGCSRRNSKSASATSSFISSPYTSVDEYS

## Cc1nc(-c2nnc3n2CCN(C(=O)c2ccc(-c4cccs4)cc2)[C@@H]3C)c(C)s1 [Compound 16, (R)-(3-(2,5-dimethylthiazol-4-yl)-8-methyl-5,6-dihydro-[1,2,4]triazolo[4,3-a]pyrazin-7(8H)-yl)(4-(thiophen-2-yl)phenyl)methanone]
Human NK-3 receptor [1]
  IC50: 30 nM
Human NK-3 receptor [2]; [3]
  Ki: 32 nM

## C[C@@H]1c2nnc(-c3csc(N(C)C)n3)n2CCN1C(=O)c1ccc(-c2cccs2)cc1 [Compound 17, (R)-(3-(2-(dimethylamino)thiazol-4-yl)-8-methyl-5,6-dihydro-[1,2,4]triazolo[4,3-a]pyrazin-7(8H)-yl)(4-(thiophen-2-yl)phenyl)methanone]
Human NK-3 receptor [1]
  IC50: 7 nM
Human NK-3 receptor [2]; [3]
  Ki: 7 nM
Human NK-3 receptor [2]; [4]
  Ki: 7 nM
Human NK1 receptor; [5]
  Ki: 6060 nM
Human NK2 receptor; [6]
  Ki: 9950 nM

## CC(C)c1nc(-c2nnc3n2CCN(C(=O)c2ccc(-c4cccs4)cc2)C3)cs1 [Compound 18, (3-(2-isopropylthiazol-4-yl)-5,6-dihydro-[1,2,4]triazolo[4,3-a]pyrazin-7(8H)-yl)(4-(thiophen-2-yl)phenyl)methanone]
Human NK-3 receptor [1]
  IC50: 10 nM
Human NK-3 receptor [2]; [3]
  Ki: 20 nM

## Cc1csc(-c2nnc3n2CCN(C(=O)c2ccc(-c4ccccc4)cc2)[C@@H]3C)n1 [Compound 20, (R)-[1,1′-biphenyl]-4-yl(8-methyl-3-(4-methylthiazol-2-yl)-5,6-dihydro-[1,2,4]triazolo[4,3-a]pyrazin-7(8H)-yl)methanone]
Human NK-3 receptor [1]
  IC50: 11 nM
Human NK-3 receptor [2]; [3]
  Ki: 12 nM

## Cc1csc(-c2nnc3n2CCN(C(=O)c2ccc(-c4ccccc4)cc2)C3)n1 [Compound 21, [1,1′-biphenyl]-4-yl(3-(4-methylthiazol-2-yl)-5,6-dihydro-[1,2,4]triazolo[4,3-a]pyrazin-7(8H)-yl)methanone]
Human NK-3 receptor [1]
  IC50: 33 nM
Human NK-3 receptor [2]; [3]
  Ki: 38 nM

## Cc1noc(-c2nnc3n2CCN(C(=O)c2ccc(-c4cccs4)cc2)[C@@H]3C)n1 [Compound 23, (R)-(8-methyl-3-(3-methyl-1,2,4-oxadiazol-5-yl)-5,6-dihydro-[1,2,4]triazolo[4,3-a]pyrazin-7(8H)-yl)(4-(thiophen-2-yl)phenyl)methanone]
Human NK1 receptor; read-out: NK1 % inhibition at 10 μM, for the racemate
  inhibition at 10 µM: < 10%
Human NK1 receptor; [5]
  Ki: > 10000 nM
Human NK2 receptor; read-out: NK2 % inhibition at 10 μM, for the racemate
  inhibition at 10 µM: < 25%
Human NK2 receptor; [6]
  Ki: > 10000 nM

## CC(C)c1nsc(-c2nnc3n2CCN(C(=O)c2ccc(-c4cccs4)cc2)[C@@H]3C)n1 [Compound 25, (R)-(3-(3-isopropyl-1,2,4-thiadiazol-5-yl)-8-methyl-5,6-dihydro-[1,2,4]triazolo[4,3-a]pyrazin-7(8H)-yl)(4-(thiophen-2-yl)phenyl)methanone]
Human NK-3 receptor [1]
  IC50: 3 nM
Human NK-3 receptor [2]; [3]
  Ki: 3 nM

## Cc1coc(-c2nnc3n2CCN(C(=O)c2ccc(-c4ccccc4)cc2)[C@@H]3C)n1 [Compound 27, (R)-[1,1′-biphenyl]-4-yl(8-methyl-3-(4-methyloxazol-2-yl)-5,6-dihydro-[1,2,4]triazolo[4,3-a]pyrazin-7(8H)-yl)methanone]
Human NK-3 receptor [1]
  IC50: 51 nM
Human NK-3 receptor [2]; [3]
  Ki: 51 nM

## Cc1cc(-c2nnc3n2CCN(C(=O)c2ccc(-c4cccs4)cc2)[C@@H]3C)n(C)n1 [Compound 28, (R)-(3-(1,3-dimethyl-1H-pyrazol-5-yl)-8-methyl-5,6-dihydro-[1,2,4]triazolo[4,3-a]pyrazin-7(8H)-yl)(4-(thiophen-2-yl)phenyl)methanone]
Human NK-3 receptor [1]
  IC50: 37 nM
Human NK-3 receptor [2]; [3]
  Ki: 68 nM

## Cc1cccc(-c2nnc3n2CCN(C(=O)c2ccc(-c4ccccc4)cc2)[C@@H]3C)n1 [Compound 29, (R)-[1,1′-biphenyl]-4-yl(8-methyl-3-(6-methylpyridin-2-yl)-5,6-dihydro-[1,2,4]triazolo[4,3-a]pyrazin-7(8H)-yl)methanone]
Human NK-3 receptor [1]
  IC50: 18 nM
Human NK-3 receptor [2]; [3]
  Ki: 23 nM

## Cc1cccc(-c2nnc3n2CCN(C(=O)c2ccc(-c4cccs4)cc2)[C@@H]3C)n1 [Compound 30, (R)-(8-methyl-3-(6-methylpyridin-2-yl)-5,6-dihydro-[1,2,4]triazolo[4,3-a]pyrazin-7(8H)-yl)(4-(thiophen-2-yl)phenyl)methanone]
Human NK-3 receptor [1]
  IC50: 11 nM
Human NK-3 receptor [2]; [3]
  Ki: 10 nM
Human NK-3 receptor [2]; [4]
  Ki: 10 nM
Human NK1 receptor; read-out: NK1 Ki, CHO membranes, 2 nM [3H] substance P
  Ki: 17200 nM
Human NK2 receptor; read-out: NK2 Ki, CHO membranes, 0.1 nM [125I]-Neurokinin A
  Ki: 5930 nM

From patent publication US9475814B2, “Chiral N-acyl-5,6,7(8-substituted)-tetrahydro-[1,2,4]triazolo[4,3-a]pyrazines as selective NK-3 receptor antagonists, pharmaceutical composition, methods for use in NK-3 receptor mediated disorders and chiral synthesis thereof” (Euroscreen S.A., priority 2011, dated 2016)
